Measured values: PMC5995905, “Confirmation of high-throughput screening data and novel mechanistic insights into VDR-xenobiotic interactions by orthogonal assays” (Scientific Reports, 2018)
Several values for one entry are separate records, joined by “and”; a condition that tells them apart may be missing. Equal values may be shown once. Entries after “also recorded” stand apart in the source; their conditions may differ. Read-outs that look alike come from different tables or passages of the source. Each block holds one compound with its values, some of them ahead of it.

How the values were obtained:
[1] = target: VDR:SRC-1 (Homo sapiens, UniProt P11473); experiment: Mammalian 2-hybrid assay, recruitment of coactivator SRC-1 by VDR, Cos7 cells
[2] = target: T1, human VDR (Homo sapiens, UniProt P11473)
T1 sequence (P11473 1-427): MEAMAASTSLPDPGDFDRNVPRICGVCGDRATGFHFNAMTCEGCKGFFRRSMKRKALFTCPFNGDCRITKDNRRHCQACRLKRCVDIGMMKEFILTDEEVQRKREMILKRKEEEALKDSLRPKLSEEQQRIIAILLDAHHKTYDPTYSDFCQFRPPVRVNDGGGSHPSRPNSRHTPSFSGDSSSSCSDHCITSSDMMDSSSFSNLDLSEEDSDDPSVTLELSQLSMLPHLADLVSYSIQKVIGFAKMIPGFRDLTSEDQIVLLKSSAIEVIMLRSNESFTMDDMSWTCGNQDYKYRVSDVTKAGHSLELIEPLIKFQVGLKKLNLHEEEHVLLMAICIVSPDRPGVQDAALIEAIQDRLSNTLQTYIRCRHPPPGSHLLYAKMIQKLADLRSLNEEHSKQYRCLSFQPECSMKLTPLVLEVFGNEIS

[3] = target: T1, human VDR; experiment: Transient transactivation assay (CYP24-Luc), agonist mode, HEK293T cells
[4] = target: human VDR ligand-binding domain; set-up: method as in PMID 21543282; details: agonist mode, cited from earlier work; for AC50: Tox21 qHTS data set, * = range of values
[5] = target: T2, VDR:NCoR (Homo sapiens, UniProt P11473); experiment: Mammalian 2-hybrid assay, recruitment of corepressor NCoR by VDR, Cos7 cells
T2 sequence (P11473 1-427): T1 sequence (P11473 1-427)

[6] = target: T1, human VDR; experiment: Transient transactivation assay (CYP24-Luc), antagonist mode with 3 nM 1,25D3, HEK293T cells; assay type: cell-based; details: for IC50: read-out: Derived IC 50 (Transient transactivation assay)
[7] = target: T3, VDR:RXR, VDR:SRC-1 and VDR:NCoR interactions (Homo sapiens, UniProt P11473); experiment: Mammalian 2-hybrid assay, summary in words of VDR coregulator interactions; assay type: cell-based
T3 sequence (P11473 1-427): T1 sequence (P11473 1-427)

[8] = target: human VDR ligand-binding domain; set-up: method as in PMID 21543282; details: read-out: Tox21 IC 50, cited from earlier work
[9] = target: T4, VDR:RXRα (Homo sapiens, UniProt P11473); experiment: Mammalian 2-hybrid assay, recruitment of RXRα by VDR, Cos7 cells
T4 sequence (P11473 1-427): T1 sequence (P11473 1-427)

[10] = agonists, -RXR (empty pSG5), percentage of vitamin D3, conc. in Fig 5: ergocalciferol 60, lithocholic acid 50, calcipotriol 0.05, ethylphenol compound 40, 9 aminoacridine 50, tamoxifen citrate 20 μM
[11] = AC50 (μM), experimental AC50 as listed in Fig 4a, agonists
[12] = Derived AC50 (Transient transactivation assay), agonist mode, HEK293T cells, CYP24A1-Luc
[13] = agonists, orthogonal transient transactivation assay, HEK293T cells
[14] = top asymptote of Hill or Gain-Loss model, maximum response

% Induction, pMSRC-1NR + EpSG5 [1, 10]: 8.2%
Derived Efficacy (fold induction) [2]: 29.470 fold induction
AC50 [3, 11]: 4.62 µM
AC50 [3, 12]: 9.32 µM
Activity [3, 13]: Active
Compound: Cc1cc(Cc2cc(C)cc(C(C)(C)C)c2O)c(O)c(C(C)(C)C)c1 [2,2′-methylenebis(6-tert-butyl-4-methylphenol)]
AC50 [4]: 32.1 µM

% Induction, pMSRC-1NR + EpSG5 [1, 10]: 14.4%
Derived Efficacy (fold induction) [2]: 44.5165 fold induction
AC50 [3, 11]: 10.9 µM
AC50 [3, 12]: 12.6 µM
Activity [3, 13]: Active
Fold Change (pMNCoR + EpSG5) ([5]; agonists, -RXR, fold induction compared to DMSO, 9 aminoacridine at 50 μM in Fig 5): 67.7 fold
Compound: Cl.Nc1c2ccccc2nc2ccccc12 [9 Aminoacridine monohydrochloride]
AC50 [4]: 4.25 to 11.1 µM

Compound: [Cl][Cd][Cl] [Cadmium chloride]
Fold Change (pMNCoR + EpSG5) [5]: 1.1
Activity [6]: Active
Derived Efficacy (fold inhibition) [6]: 44.5165 fold inhibition
IC50 [6]: 0.38 µM
pattern of change of 1,25D3 induced VDR:coregulator interaction [7]: enhanced recruitment of VDR:RXR and VDR:SRC-1 in both the presence and absence of co-expressed coregulators
IC50 [8]: 0.171 µM
% Induction (pMRXRα + EpSG5) [9]: 175

% Induction (pMSRC-1NR + RXRα) ([1]; antagonists with 1,25D3, +RXR, percentage of vitamin D3, conc. in Fig 6: Cd chloride 12, dibutyltin dichloride 1, K dicyanoaurate 6, proscillaridin, aristolochic acid, carfizomib 12 μM): 296%
Activity [3, 13]: very weak agonist activity
Activity ([6]; antagonists, transient transactivation assay in the presence of 3 nM 1,25D3): Active
Activity ([6]; antagonists, transient transactivation assay in the presence of 3 nM 1,25D3, listed as carfizomib): moderate to marked synergistic activity
IC50 ([6]; inhibition of 3 nM 1,25D3-induced response, HEK293T cells, unit given in Fig 3 legend): 0.53 µM and 0.538 µM
Derived Efficacy (fold inhibition) [6, 14]: 80.6485 fold inhibition
% Induction (pMRXRα + EpSG5) ([9]; antagonists with 1,25D3, -SRC-1, percentage of vitamin D3, conc. in Fig 6: phenylarsine oxide 0.37, dibutyltin dichloride 1, K dicyanoaurate 6, aristolochic acid, carfizomib 12, menadiol 3 μM): 1908.1%
Compound: CC(C)C[C@H](NC(=O)[C@H](CCc1ccccc1)NC(=O)CN1CCOCC1)C(=O)N[C@@H](Cc1ccccc1)C(=O)N[C@@H](CC(C)C)C(=O)[C@@]1(C)CO1 [Carfizomib, reference compound]
IC50 ([8]; antagonist mode, Tox21 qHTS data set): 0.748 µM

Compound: CN1CCC(Nc2ncc3ncnc(Nc4ccc(F)c(Cl)c4)c3n2)CC1.Cl.Cl [Falnidamol dihydrochloride]
Derived Efficacy (fold induction) [2]: 9.9267 fold induction
Activity [3]: consistently failed to exhibit any concentration response interactions; also recorded: Inactive
pattern of VDR:coregulator interaction facilitated by the ligand [7]: induced recruitment of RXR both in the presence and absence of co-transfected SRC-1
AC50 [4]: 3.3 µM
activity in the Tox21 qHTS data set [4]: active
% Induction (pMRXRα + EpSG5) [9]: 5.3
% Induction (pMRXRα + SRC- 1) [9]: 3.7

Compound: O=C(NC(=O)c1c(F)cccc1F)Nc1ccc(OC(F)(F)C(F)OC(F)(F)F)c(Cl)c1 (stereo not shown) [Novaluron]
% Induction, pMSRC-1NR + EpSG5 [1]: 0.9
Derived Efficacy (fold induction) [2]: 16.3718 fold induction
Activity [3]: Active
AC50 ([3]; read-out: Derived AC50 (Transient transactivation assay)): 37.4 µM
pattern of VDR:coregulator interaction facilitated by the ligand [7]: Interaction between VDR:SRC-1 only in the absence of RXR
AC50 [4]: 23.4 µM

Compound: Nc1nc(N)c2nc(CNc3ccc(C(=O)N[C@@H](CCC(=O)O)C(=O)O)cc3)cnc2n1 [reference compound]
Activity [2]: Active
AC50 ([3]; Derived AC50 (Transient transactivation assay)): 33.7 µM
Derived Efficacy (fold induction) [3, 14]: 16.3718 fold induction
pattern of VDR:coregulator interaction facilitated by the ligand [7]: did not facilitate VDR:RXR or VDR:SRC-1 interactions under any condition
AC50 [4]: 11.8 µM

Compound: Cadmium acetate dihydrate
% Induction (pMSRC-1NR + RXRα) [1]: 46.7
% Induction, pMSRC-1NR + EpSG5 [1]: 51.7
Activity [6]: Active
Derived Efficacy (fold inhibition) [6]: 20.5478 fold inhibition
pattern of change of 1,25D3 induced VDR:coregulator interaction [7]: enhanced the interaction between VDR:RXR only in the presence of co transfected SRC-1
IC50 [8]: 0.271 µM
% Induction (pMRXRα + SRC- 1) [9]: 165.6

Compound: Cadmium reference solution
% Induction (pMSRC-1NR + RXRα) [1]: 0.9
% Induction, pMSRC-1NR + EpSG5 [1]: 1.3
Fold Change (pMNCoR + EpSG5) [5]: 0.7
Activity [6]: Active
Derived Efficacy (fold inhibition) [6]: 76.1807 fold inhibition
IC50 [6]: 0.198 µM
% Induction (pMRXRα + EpSG5) [9]: 23.7
% Induction (pMRXRα + SRC- 1) [9]: 16
